# Laboratory results reported in patent US20230108730A1, “BIENZYMATIC BIOSENSOR FOR THE DETECTION OF LACTULOSE IN BLOOD” (TRIVIUMVET DESIGNATED ACTIVITY COMPANY, priority 2020, published 2023).
# Experiments:
# [1] = Electrochemical dual-enzyme (β-Gal/GalOx) biosensor quantification of lactulose in canine plasma sample by amperometry; assay type: in vivo; conditions: dog, oral, canine plasma sample CAN 84049 D6 t60, standard additions calibration, read-out: lactulose concentration in the original plasma sample
# Source text: An electrochemical biosensor for the indirect detection of lactulose in buffer and plasma samples used an electrocatalytic surface as the working electrode which was modified with a dual enzyme system comprising β-galactosidase (β-Gal) and galactose oxidase (GalOx). The electrochemical biosensor comprised a 3-electrode system of a working electrode (the dual enzyme-modified Pt electrode), an Ag/AgCl reference electrode, and a Pt wire as auxiliary electrode.
# The enzymes were immobilised on the surface of the working electrode using a cross-linker. A 2 mm diameter Pt disk was used as the electrocatalytic surface for the working electrode. […]
# The three electrodes were immersed in 2 mL of PBS solution 0.1 M pH 7.3 at 35° C. to comprise the electrochemical cell and an oxidative potential of +600 mV was applied between the working and reference electrodes for quantification of lactulose in a canine plasma sample by amperometry, as illustrated in FIG. 5. […]
# Following this 200 μL of canine plasma (CAN 84049 D6 t60) was added to the cell and the current response was monitored for a period of 400 s.
# Three sequential additions of a volume of 1 mM Lactulose standard (V1=75 μL; V2=80 μL; V3=85 μL) were then added to the cell and the current response was monitored for 400 s after each addition. […]
# [2] = Plasma lactulose after oral lactulose solution in canine NSAID-induced gastric ulceration model (ion chromatography); assay type: in vivo, dog; conditions: for concentration at 10 min / concentration at 20 min / concentration at 30 min / concentration at 60 min: dog, plasma, po; for concentration at 20 min: 20 min after 0.6-0.7 g/kg PO; for concentration at 30 min: 30 min after 0.6-0.7 g/kg PO; for concentration at 60 min: 60 min after 0.6-0.7 g/kg PO
# Experimental: A model of canine gastric ulceration was developed using a combination of orally administered nonsteroidal anti-inflammatory drugs (NSAIDs) at doses appropriate to induce ulceration without concomitant renal or hepatic dysfunction. Healthy laboratory dogs (14.0 to 16.7 kg) were screened to exclude individuals with clinically silent disorders, including gastrointestinal disease. Under the GCP study protocol, each dog was administered 50 ml of a 20% w/v lactulose solution orally (0.6-0.7 g/kg lactulose PO) following a 24-h fast at baseline and following a period of ulcer induction. On each occasion, peripheral venous blood was drawn from each dog into 1.3-ml Sarstedt blood tubes containing lithium heparin as an anticoagulant at 10, 20, 30 and 60 minutes following bolus administration of the lactulose solution. The Sarstedt tube product number was 41.1393.005. Blood samples were centrifuged for 15 minutes at 3000 rpm, before decanting plasma into plain tubes; plasma was stored at −80° C. until analysis. Prior to lactulose administration, endoscopy was performed on each dog, and the presence and extent of gastric ulceration were assessed by a blinded specialist veterinary gastroenterologist. Following confirmation of the presence of ulceration, NSAID administration was discontinued and post ulcer induction lactulose administration and plasma collection were performed. Frozen plasma samples were transported under GMP conditions at −80° C. to an analytical facility. Following thawing, the samples were analysed for lactulose concentration using an ion chromatography method previously developed using blank plasma samples spiked with known concentrations of lactulose. [table] Sample preparation for Ion Chromatography analysis: 200 μL aliquots of liquid from each of the plasma samples were diluted to 1000 μL with acetonitrile. The samples were vortexed thoroughly, followed by centrifugation at 15000 rpm for 10 minutes. The supernatants were analysed directly by ion chromatography. Analysis was performed in duplicate. Calibration Curve: Calibration curves were prepared in the blank plasma sample. Briefly, plasma samples were spiked with varying concentrations of lactulose and were then diluted with acetonitrile to the required final concentration range. The samples were then processed as described above before analysis by ion chromatography. Samples were analysed in duplicate. Linearity was established for plasma lactulose concentrations in the range 5 to 250 μM.
# [3] = molecular target: H-2 receptors (Homo sapiens, UniProt P25021); conditions: human subjects, administered intravenously; cited from earlier work
# Sequence of H-2 receptors (P25021 whole entry): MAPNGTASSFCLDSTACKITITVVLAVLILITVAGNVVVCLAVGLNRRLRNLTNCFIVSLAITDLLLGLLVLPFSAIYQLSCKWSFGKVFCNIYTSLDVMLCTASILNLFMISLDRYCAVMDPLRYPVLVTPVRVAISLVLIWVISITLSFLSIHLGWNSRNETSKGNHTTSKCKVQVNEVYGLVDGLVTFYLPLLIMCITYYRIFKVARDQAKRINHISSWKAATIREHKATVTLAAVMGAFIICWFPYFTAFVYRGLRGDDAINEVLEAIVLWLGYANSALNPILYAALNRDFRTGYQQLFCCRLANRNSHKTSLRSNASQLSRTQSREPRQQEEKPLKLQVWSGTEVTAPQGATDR
# [4] = system: gastric ulceration; test: Omeprazole treatment of study dogs with NSAID-induced gastric ulceration; assay type: in vivo, dog; conditions: 0.5 to 1.0 mg/kg twice daily for 3 weeks
# [5] = system: gastric ulcers; conditions: foals; ulcers associated with intravenous high-dose NSAIDs; cited from earlier work
# [6] = ulceration Moderate to severe (n = 4)
compound,measurement,setting,value
"OC[C@H]1O[C@@H](O[C@@H]2[C@@H](CO)OC(O)(CO)[C@H]2O)[C@H](O)[C@@H](O)[C@H]1O (mixture of isomers) [Lactulose, lactulose]",concentration at 60 min,[1],275 to 400 µM
same,concentration at 10 min,"[2]; 10 min after 0.6-0.7 g/kg PO (50 ml 20% w/v), endoscopic grade of gastric ulceration Absent (n = 8)",24.9 µM
same,concentration at 10 min,"[2]; 10 min after 0.6-0.7 g/kg PO, ulceration Mild (n = 4)",44.6 µM
same,concentration at 10 min,"[2]; 10 min after 0.6-0.7 g/kg PO, ulceration Moderate to severe (n = 4)",60.9 µM
same,concentration at 20 min,[2]; ulceration Absent (n = 8),39.1 µM
same,concentration at 20 min,[2]; ulceration Mild (n = 4),68.7 µM
same,concentration at 20 min,[2]; [6],94.3 µM
same,concentration at 30 min,[2]; ulceration Absent (n = 8),46 µM
same,concentration at 30 min,[2]; ulceration Mild (n = 4),88.2 µM
same,concentration at 30 min,[2]; [6],144 µM
same,concentration at 60 min,[2]; ulceration Absent (n = 8),61.1 µM
same,concentration at 60 min,[2]; ulceration Mild (n = 4),110 µM
same,concentration at 60 min,[2]; [6],184 µM
same,rate and extent of systemic lactulose absorption,"[2]; following ulcer induction versus baseline, each dog",increased significantly
NC(N)=Nc1nc(CSCCC(N)=NS(N)(=O)=O)cs1 [famotidine],time to occurrence of tolerance,[3],12 to 72 h
COc1ccc2[nH]c([S+]([O-])Cc3ncc(C)c(OC)c3C)nc2c1 (centres unmarked) [omeprazole],"time to resolution of laboratory evidence of gastric ulceration (anemia, inflammatory leucogram, hypoalbuminaemia)",[4],≤ 3 weeks
sucralfate,effect on gastric ulcers,[5],protective effect
